The results in this text go back to patent publication US10703765B2 (priority 2014, dated 2020).

Structures can show the parent of a compound that is named as a salt.

The first assay deals with human σ1 receptor (Homo sapiens, UniProt Q99720). Put plainly: biochemical. On the set-up: μ and σ1 dual binding: key to the marks not given beside the values.
human σ1 receptor, sequence (Q99720 whole entry): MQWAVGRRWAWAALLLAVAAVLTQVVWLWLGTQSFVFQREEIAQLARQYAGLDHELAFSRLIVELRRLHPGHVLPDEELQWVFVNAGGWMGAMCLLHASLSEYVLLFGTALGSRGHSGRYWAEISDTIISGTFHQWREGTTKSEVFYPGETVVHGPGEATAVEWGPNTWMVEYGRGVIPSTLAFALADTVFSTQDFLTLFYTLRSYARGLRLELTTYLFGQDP
Conditions: not given
The assay is classed as binding.
The molecule `CC1COC2(CCN(CCc3ccccc3)CC2)CN1c1ccccc1` (stereo not drawn) [Example 340, 3-methyl-9-phenethyl-4-phenyl-1-oxa-4,9-diazaspiro[5.5]undecane hydrochloride] returned a Ki of less than 500 nM.
`CC1OC2(CCN(CCc3ccccc3)CC2)CN(Cc2ccccn2)C1=O` (stereo not drawn) [Example 157, 2-methyl-9-phenethyl-4-(pyridin-2-ylmethyl)-1-oxa-4,9-diazaspiro[5.5]undecan-3-one hydrochloride] showed a Ki of less than 100 nM.
With `CC1OC2(CCN(CCc3cccc(C#N)n3)CC2)CN(c2ccccc2)C1=O.Cl` (stereo not drawn) [Example 123, 6-(2-(2-methyl-3-oxo-4-phenyl-1-oxa-4,9-diazaspiro[5.5]undecan-9-yl)ethyl)picolinonitrile hydrochloride], the “μ and σ1 dual binding” value is “++”.
Molecule `COC(=O)CCN1CCC2(CC1)CN(Cc1ccccc1)CC1(CC1)O2` [Example 347, methyl 3-(12-benzyl-4-oxa-8,12-diazadispiro[2.1.5.3]tridecan-8-yl)propanoate] gave a Ki of less than 500 nM.
For `CC1OC2(CCN(CCOc3ccccc3)CC2)CN(c2ccccc2)C1=O.Cl` (stereo not drawn) [Example 72, 2-methyl-9-(2-phenoxyethyl)-4-phenyl-1-oxa-4,9-diazaspiro[5.5]undecan-3-one hydrochloride], the “μ and σ1 dual binding” value is “++”.
`CC1OC2(CCN(CCc3ccccc3)CC2)CN(c2cccc(O)c2)C1=O` (stereo not drawn) [Example 294, 4-(3-hydroxyphenyl)-2-methyl-9-phenethyl-1-oxa-4,9-diazaspiro[5.5]undecan-3-one]: the “μ and σ1 dual binding” value was “++”.
The molecule `CC1OC2(CCN(CCc3ccccc3NS(C)(=O)=O)CC2)CN(c2ccccc2)C1=O` (stereo not drawn) [Example 257, N-(2-(2-(2-methyl-3-oxo-4-phenyl-1-oxa-4,9-diazaspiro[5.5]undecan-9-yl)ethyl)phenyl)methanesulfonamide] returned a Ki of less than 500 nM.
Still for that read-out and setting: then `CC1OC2(CCN(CCCc3ccccc3)CC2)CN(c2ccccc2)C1=O` (stereo not drawn) [Example 60, 2-methyl-4-phenyl-9-(3-phenylpropyl)-1-oxa-4,9-diazaspiro[5.5]undecan-3-one hydrochloride], with less than 500 nM.
Take `Cl.O=C1COC2(CCN(Cc3ccccc3)CC2)CN1c1ccc(F)cc1` [Example 188, 9-benzyl-4-(4-fluorophenyl)-1-oxa-4,9-diazaspiro[5.5]undecan-3-one hydrochloride]: the “μ and σ1 dual binding” value is on record as “++”.
Same read-out and setting: under `Cc1cc(C)n(CCN2CCC3(CC2)CN(c2ccccc2)C(=O)C(C)O3)n1.Cl` (stereo not drawn) [Example 77, 9-(2-(3,5-dimethyl-1H-pyrazol-1-yl)ethyl)-2-methyl-4-phenyl-1-oxa-4,9-diazaspiro[5.5]undecan-3-one hydrochloride] stands “++”; under `C[C@@H]1OC2(CCN(CCc3ccccc3F)CC2)CN(c2cnccc2C(F)(F)F)C1=O.Cl` [Example 127a, (S)-9-(2-fluorophenethyl)-2-methyl-4-(4-(trifluoromethyl)pyridin-3-yl)-1-oxa-4,9-diazaspiro[5.5]undecan-3-one hydrochloride], “++”.
`CC1OC2(CCN(CCc3csc(N)n3)CC2)CN(c2ccccc2F)C1=O` (stereo not drawn) [Example 303, 9-(2-(2-aminothiazol-4-yl)ethyl)-4-(2-fluorophenyl)-2-methyl-1-oxa-4,9-diazaspiro[5.5]undecan-3-one] showed a Ki of less than 500 nM.

Still in this assay, the particulars now being: combined class from Ki-σ1 (human σ1 receptor, A1) and Ki-μ (human μ-opioid receptor, A2) radioligand binding.
As to `CC1OC2(CCN(CCc3cc(C#N)ccn3)CC2)CN(c2ccccc2)C1=O` (stereo not drawn) [Example 41, 2-(2-(2-methyl-3-oxo-4-phenyl-1-oxa-4,9-diazaspiro[5.5]undecan-9-yl)ethyl)isonicotinonitrile], the “μ and σ1 dual binding” value was “++”.

Staying with this assay, now noted: read-out: μ and σ1 dual binding.
Turning to `CC1OC2(CCN(CCc3ccc([N+](=O)[O-])cn3)CC2)CN(c2ccccc2)C1=O` (stereo not drawn) [Example 23, 2-methyl-9-(2-(5-nitropyridin-2-yl)ethyl)-4-phenyl-1-oxa-4,9-diazaspiro[5.5]undecan-3-one], the Ki was greater than 500 nM.
`CC1OC2(CCN(CCc3ccccc3F)CC2)CN(c2ncccc2C(F)(F)F)C1=O` (stereo not drawn) [Example 221, 9-(2-fluorophenethyl)-2-methyl-4-(3-(trifluoromethyl)pyridin-2-yl)-1-oxa-4,9-diazaspiro[5.5]undecan-3-one]: the Ki was less than 500 nM.
Take `Nc1cccc(CCN2CCC3(CC2)CN(Cc2ccccc2)CCO3)c1` [Example 338, 3-(2-(4-benzyl-1-oxa-4,9-diazaspiro[5.5]undecan-9-yl)ethyl)aniline]: the Ki was greater than 500 nM.
Still for that read-out and setting: then `COCC1OC2(CCN(CCc3ccccc3)CC2)CN(c2ccccc2)C1=O` (stereo not drawn) [Example 11, 2-(methoxymethyl)-9-phenethyl-4-phenyl-1-oxa-4,9-diazaspiro[5.5]undecan-3-one], with less than 100 nM; and `C[C@H]1OC2(CCN(CCc3ccccc3F)CC2)CN(c2ncccc2C(F)(F)F)C1=O` [Example 222a, (R)-9-(2-fluorophenethyl)-2-methyl-4-(3-(trifluoromethyl)pyridin-2-yl)-1-oxa-4,9-diazaspiro[5.5]undecan-3-one], with less than 500 nM.
With `Oc1ccccc1CCN1CCC2(CC1)CN(Cc1ccccn1)CCO2` [Example 329, 2-(2-(4-(pyridin-2-ylmethyl)-1-oxa-4,9-diazaspiro[5.5]undecan-9-yl)ethyl)phenol hydrochloride], the Ki is less than 100 nM.
In the case of `CC(=O)Nc1ccnc(CCN2CCC3(CC2)CN(c2ccccc2)C(=O)C(C)O3)c1` (stereo not drawn) [Example 253, N-(2-(2-(2-methyl-3-oxo-4-phenyl-1-oxa-4,9-diazaspiro[5.5]undecan-9-yl)ethyl)pyridin-4-yl)acetamide hydrochloride], the Ki is greater than 500 nM.
Take `CC1OC2(CCN(CCc3ccc(F)cc3)CC2)CN(c2ccccc2)C1=O` (stereo not drawn) [Example 55, 9-(4-fluorophenethyl)-2-methyl-4-phenyl-1-oxa-4,9-diazaspiro[5.5]undecan-3-one hydrochloride]: the Ki is less than 100 nM.
For the molecule `CC1OC2(CCN(CC(=O)N3CCOCC3)CC2)CN(c2ccccc2)C1=O` (stereo not drawn) [Example 78, 2-methyl-9-(2-morpholino-2-oxoethyl)-4-phenyl-1-oxa-4,9-diazaspiro[5.5]undecan-3-one hydrochloride], the Ki was greater than 500 nM.
Take `CC1OC2(CCN(CCc3ccccc3)CC2)CN(Cc2ccccc2F)C1=O` (stereo not drawn) [Example 154, 4-(2-fluorobenzyl)-2-methyl-9-phenethyl-1-oxa-4,9-diazaspiro[5.5]undecan-3-one hydrochloride]: the Ki was less than 100 nM.
Consider `CC(C)(C)OC(=O)Nc1nc(CCN2CCC3(CC2)CN(c2ccccc2)C(=O)C2(CC2)O3)cs1` [Example 118, tert-butyl (4-(2-(13-oxo-12-phenyl-4-oxa-8,12-diazadispiro[2.1.5.3]tridecan-8-yl)ethyl)thiazol-2-yl)carbamate], for which the Ki is greater than 500 nM.
The same measure, in the same setting: under `COc1ccccc1CCN1CCC2(CC1)CN(Cc1ccccn1)C(=O)CO2` [Example 79, 9-(2-methoxyphenethyl)-4-(pyridin-2-ylmethyl)-1-oxa-4,9-diazaspiro[5.5]undecan-3-one] stands less than 500 nM; under `Oc1cccc(N2CCOC3(CCN(Cc4ccccc4)CC3)C2)c1` [Example 318, 3-(9-benzyl-1-oxa-4,9-diazaspiro[5.5]undecan-4-yl)phenol], less than 500 nM; under `CC1OC2(CCN(CCc3cccnc3)CC2)CN(c2ccccc2)C1=O` (stereo not drawn) [Example 73, 2-methyl-4-phenyl-9-(2-(pyridin-3-yl)ethyl)-1-oxa-4,9-diazaspiro[5.5]undecan-3-one], less than 500 nM.
